Measured values published in PMC2857364, “Inhibition of Nitric Oxide (NO) Production in Lipopolysaccharide (LPS)-Activated Murine Macrophage RAW 264.7 Cells by the Norsesterterpene Peroxide, Epimuqubilin A” (Marine Drugs, 2010).
Where a name gives a salt, the structure may show the parent alone. Read-outs that look alike come from different tables or passages of the source.

Columns and labels:
[1] = test system: NO production in LPS-activated murine macrophage RAW 264.7 cells; test: Assay for NO inhibitory effect using LPS-activated RAW 264.7 cells (Griess reagent); type: cell-based; settings: for IC50: LPS (1 μg/mL, 20 h)-activated RAW 264.7 cells
Method: (§1) The inhibitory effects of samples on NO production were evaluated in LPS-activated murine macrophage RAW 264.7 cells, using a method modified from that previously reported. Briefly, RAW 264.7 cells were cultured in Dulbecco’s modified Eagle’s medium (DMEM) supplemented with penicillin G sodium (100 units/mL), streptomycin sulfate (100 μg/mL), amphotericin B (0.25 μg/mL), and 10% fetal bovine serum (FBS). The cells were seeded in 96-well culture plates with 1 × 10^5 cells/well and incubated for 24 h at 37°C in a humidified atmosphere containing 5% CO2. The cells were treated with samples dissolved in phenol red-free DMEM for 30 min followed by 1 μg/mL of LPS treatment for 20 h. The amount of NO in the cultured medium was measured by the Griess reagent. The standard curve was created by using known concentrations of sodium nitrite, and the absorbance was measured at 540 nm. To evaluate the cytotoxic effect of samples in RAW 264.7 cells in the assay condition, SRB assay was performed. Briefly, after the fixation with 10% trichloroacetic acid (TCA), cells were stained with 0.4% SRB solution in 1% acetic acid followed by dissolving bound SRB in 10 mM Tris-buffer. The optical density was determined at 515 nm.

[2] = SRB assay for cytotoxic effect in RAW 264.7 cells under the NO assay condition; type: cell-based, murine; settings: mouse, RAW 264.7 macrophage cells (LPS-activated); for activity at 20 h, 20 μg/mL: 20 μg/mL after 20 h incubation in RAW 264.7 cells, read-out: Cytotoxic activity % Survival; for IC50 at 20 h: RAW 264.7 cells, SRB
Method: (§2) In addition, to determine whether the inhibitory effects of compounds on NO production were due to specific pharmacological activities, or non-specific cell cytotoxicity leading to false positive results, RAW 264.7 cell viability was determined by using the sulforhodamine B (SRB) protein staining method. Compounds 1 and 6 mediated a modest cytototoxic response, with 36.1 and 43.0% percent survival, respectively, at the highest concentration tested (20 μg/mL; 51.0 μM). Cytotoxic effects diminished with lower concentrations. […] Further experiments will be performed to determine whether epimuqubilin A inhibits nitrite production via suppression of iNOS expression in the levels of protein.
as §1

RAW 264.7 cells = test: as above; type: cell-based, murine; settings: for Cytotoxic effects: at 12.8 μM, RAW 264.7 cells, SRB
Method: as §2, §1

GSK-3β = type: cell-based, yeast; settings: disk alone 7 mm
Method: Disruption of four yeast GSK-3 homologs (MCK1, MDS1, MRK1 and YOL128C) in gsk-3 null mutant confers a temperature-sensitive phenotype (growth defect at 37 °C), that can be suppressed by the expression of cloned mammalian GSK-3β [29]. Inhibition of GSK-3β should therefore mimic the phenotype of the gsk-3 null mutant, indicated by growth inhibition of transformant of gsk-3 null with pKT10-GSK-3β only at 37 °C. A genetically modified yeast strain, H10075 with genotype {MAT α his3 leu2 ura3 trp1 ade2 mck1::TRP1 mds1::HIS3 mrk1 yol128c::LEU2 [pKT10-GSK-3β], was grown in 5 mL of liquid media of SC minus uracil, shaking, at 37 °C for 2 days. Four hundred-μL of the yeast culture was added to 100 mL of SC minus uracil agar [0.67% yeast nitrogen base without amino acids and ammonium sulfate, 0.5% ammonium sulfate, 2% D-(+)-glucose anhydrate, 1 mL each of 0.03 mg/mL of adenine (hemisulfate salt), 0.03 mg/mL of L-tryptophan, 0.03 mg/mL of L-leucine, 0.03 mg/mL of L-histidine and 1.5% bacteriological agar, pH 5.6]. […] The Petri dishes were incubated at both 25 °C and 37 °C for 72 hours. Three phenotypes are observed on yeast plates. A clear zone of inhibition (ZOI) at 37 °C and no ZOI at 25 °C indicate that the agent tested inhibits the GSK-3β pathway. The clear zones of inhibition at both 37 and 25 °C of equal width indicate that the agents are cytotoxic. Plates that have a negative phenotype are plates that have no observable ZOI. […] The assays were performed in duplicate.

COC(=O)C(C)C1CCC(C)(CCC=C(C)CCC=C(C)CCC=C(C)C)OO1 (stereo not drawn) [Compound 3]
IC50 ([1]; Mus musculus, RAW264.7, 20 h): 46 µM | activity at 20 h, 20 μg/mL [2]: > 100%

CC1=C(CC/C(C)=C/CC[C@@]2(C)CC[C@@H]([C@H](C)C(=O)O)OO2)C(C)(C)CCC1 [Compound 1, epimuqubilin A]
IC50 ([1]; Mus musculus, RAW264.7, 20 h): 7.4 µM | activity at 20 h, 20 μg/mL [2]: 36.1% | IC50 at 20 h [2]: 37.1 µM | Cytotoxic effects (RAW 264.7 cells): no significant cytotoxic effects | Yeast GSK-3β zone of inhibition (GSK-3β; 25 °C, 20 μg/disk): no ZOI | Yeast GSK-3β zone of inhibition (GSK-3β; 37 °C, 20 μg/disk): 8 mm | Yeast GSK-3β zone of inhibition (GSK-3β; 37 °C, 20 μg/disk, listed as Epimuqubilin A (1)): 9 mm | Yeast GSK-3β zone of inhibition (GSK-3β; 37 °C, 40 μg/disk): 10–13 mm | Yeast GSK-3β zone of inhibition (GSK-3β; 37 °C, 40 μg/disk, listed as Epimuqubilin A (1)): 10 mm

Cn1sc(=O)n(Cc2ccccc2)c1=O [TDZD-8, 4-Benzyl-2-methyl-1,2,4-thiadiazolidine-3,5-dione, reference compound]
Yeast GSK-3β zone of inhibition (GSK-3β; 25 °C, 5 μg/disk): 8 mm | Yeast GSK-3β zone of inhibition (GSK-3β; 25 °C, 10 μg/disk): 9 mm | Yeast GSK-3β zone of inhibition (GSK-3β; 25 °C, 20 μg/disk): 10 mm | Yeast GSK-3β zone of inhibition (GSK-3β; 25 °C, 40 μg/disk): 12 mm | Yeast GSK-3β zone of inhibition (GSK-3β; 37 °C, 5 μg/disk): 9 mm | Yeast GSK-3β zone of inhibition (GSK-3β; 37 °C, 10 μg/disk): 10 mm | Yeast GSK-3β zone of inhibition (GSK-3β; 37 °C, 20 μg/disk): 11 mm | Yeast GSK-3β zone of inhibition (GSK-3β; 37 °C, 40 μg/disk): 15 mm

C=C1CCC[C@H]2[C@](C)(CC[C@]3(C)CC[C@H]([C@@H](C)C(=O)O)OO3)[C@@H](C)CC[C@]12C [Compound 6, sigmosceptrellin A]
IC50 ([1]; Mus musculus, RAW264.7, 20 h): 9.9 µM | activity at 20 h, 20 μg/mL [2]: 43% | IC50 at 20 h [2]: 42.7 µM | Cytotoxic effects (RAW 264.7 cells): no significant cytotoxic effects | Yeast GSK-3β zone of inhibition (GSK-3β; 25 °C, 20 μg/disk): no ZOI | Yeast GSK-3β zone of inhibition (GSK-3β; 37 °C, 5 μg/disk): 8 mm | Yeast GSK-3β zone of inhibition (GSK-3β; 37 °C, 10 μg/disk): 10 mm | Yeast GSK-3β zone of inhibition (GSK-3β; 37 °C, 20 μg/disk): 8 mm | Yeast GSK-3β zone of inhibition (GSK-3β; 37 °C, 20 μg/disk, listed as Sigmosceptrellin A (6)): 11 mm | Yeast GSK-3β zone of inhibition (GSK-3β; 37 °C, 40 μg/disk): 10–13 mm | Yeast GSK-3β zone of inhibition (GSK-3β; 37 °C, 40 μg/disk, listed as Sigmosceptrellin A (6)): 13 mm

CC(=O)CCCC(C)(C)C(=O)CCC(C)=CCCC1(C)CCC(C(C)C(=O)O)OO1 (stereo not drawn) [Compound 2, muqubilone B]
IC50 ([1]; Mus musculus, RAW264.7, 20 h): 23.8 µM | activity at 20 h, 20 μg/mL [2]: 99%

C=C1CCCC2C1(C)CCC(C)C2(C)CCC1(C)CCC(C(C)C(=O)OC)OO1 (stereo not drawn) [Compound 7, sigmosceptrellin B methyl ester]
IC50 ([1]; Mus musculus, RAW264.7, 20 h): 65.7 µM | activity at 20 h, 20 μg/mL [2]: > 100%

C=C1CCCC2C1(C)CCC(C)C2(C)CCC1(C)CCC(C(C)C(=O)OC)OO1 (stereo not drawn) [Compound 5, sigmosceptrellin A methyl ester]
IC50 ([1]; listed as Sigmosceptrellin A methyl ester (5)): > 100 µM | NO inhibitory activity (in words) ([1]; LPS-activated RAW 264.7 cells): inactive | Cytotoxic activity % Survival (RAW 264.7 cells; 20 μg/mL after 20 h incubation in RAW 264.7 cells, listed as Sigmosceptrellin A methyl ester (5)): 90.6%

C=C1CCCC(C)(C)C1(O)CC/C(C)=C/CC[C@]1(C)CC[C@H]([C@@H](C)C(=O)OC)OO1 (stereo partly drawn) [Compound 4, epimuqubilin B]
IC50 ([1]; Mus musculus, RAW264.7, 20 h): 25.6 µM | activity at 20 h, 20 μg/mL [2]: > 100% | Yeast GSK-3β zone of inhibition (GSK-3β; 25 °C, 20 μg/disk): no ZOI | Yeast GSK-3β zone of inhibition (GSK-3β; 37 °C, 20 μg/disk): 8 mm | Yeast GSK-3β zone of inhibition (GSK-3β; 37 °C, 40 μg/disk): 10–13 mm | Yeast GSK-3β zone of inhibition (GSK-3β; 37 °C, 40 μg/disk, listed as Epimuqubilin B (4)): 10 mm

[H]/N=C(/NC)NCCC[C@H](N)C(=O)O [L-NMMA, L-N^G-Monomethyl Arginine citrate, reference compound]
IC50 ([1]; Mus musculus, RAW264.7, 20 h): 25.5 µM | activity at 20 h, 20 μg/mL [2]: > 100%
